# Experimental data: patent EP2307018B1, “OXYMATRINE COMPOSITIONS AND USE THEREOF FOR TREATING AND PREVENTING CHRONIC INFECTIOUS DISEASES” (Chia, John K.S., priority 2008, dated 2010)
# How the values were obtained:
# cytokine gene expression = cytokine gene expression study on blood samples before and after oxymatrine (FIG. 4); type: in vivo, human; conditions: blood samples before and after taking oxymatrine for 15 months, one patient
# Text: A cytokine gene expression study on blood samples before (Sample 2) and after (Sample 3) taking oxymatrine for 15 months in one patient, is graphically illustrated in FIG. 4. […] FIG. 5 illustrates that neutralizing antibodies CBV 3 and CBV 4 were obtained serially over a three year period (performed by ARUP laboratory, Salt Lake City, UT).
# [1] = system: Coxsackie B virus (CBV) 3, CVB4 and echovirus 9; assay: case report Example 2, treatment of chronic fatigue; type: in vivo, human
# Protocol: A person with episodes of diarrhea while traveling to Tonga developed severe respiratory infection soon thereafter. The symptoms consisted of fevers to 105°F, night sweats, diffuse myalgia, tachycardia, fatigue, sinus congestion and cough, and unresponsiveness to antibiotics. The patient developed profound fatigue thereafter and went on total disability three months after the onset of symptoms. Initial Coxsackie B virus (CBV) 3, CVB4 and echovirus 9 antibody titers were 1:320, 1:160, 1:80 (normal <1:10), respectively.
# The patient could not work for the next 18 months. They were started on oxymatrine at 300 mg twice a day (bid). After taking oxymatrine for two months, they were able to take short walks, but still exhausted after one hour of activity requiring five hour naps. At the end of three months of therapy, they started having fevers of 104-105°F for several days with marked decrease in diffuse myalgia. […] CVB3, CVB4 and echovirus antibody three months after therapy were 1:160, 1:160 and 1:20, respectively.
# enterovirus = assay: case report Example 4, treatment of chronic fatigue; type: in vivo, human
# Protocol: A person with a known history of frequent respiratory infections and vasovagal syncope developed respiratory infection, which was followed by bedridden fatigue. Enteroviral protein was detected in the stomach biopsy consistent with chronic enterovirus infection. […] After vigorous exercise, they would still have relapses of bedridden fatigue for one day but continued to work 10-12 hours per day for the next 12 months, walking two miles per day. Laboratory tests were normal while on therapy.
# [2] = system: Mycobacterium avium complex (MAC); assay: case report Example 8, Mycobacterium avium complex infection; type: in vivo, human
# Protocol: A person with known history of Mycobacterium avium complex (MAC) infection of the lung and bronchiectasis for several years was treated with clarithromycin, ethambutol, ciprofloxacin and rifabutin for about five years. As a result of persistent positive sputum culture for MAC, the patient was also treated with gamma interferon (an immune booster) without significant benefit. Intravenous amikacin was added following right middle and left lingula lobectomy. In spite of the above therapy, sputum and repeat bronchial washing obtained by bronchoscopy grew MAC within three weeks. A computed tomography scan of the chest remained unchanged except for the post-surgical changes.
# Sputum became clear in color then resolved. About two months after the start of oxymatrine, the patient had fevers, flu-like symptoms, increase in non-productive cough, bilateral uveitis and elevation of liver enzymes to 3.5 times normal values. The symptoms lasted two weeks and resolved after tapering dose of oxymatrine to 200 mg bid. Liver enzymes returned to normal within six weeks. […] The anti-MAC medications were discontinued after […] of oxymatrine therapy. The dose of oxymatrine was tapered to 100 mg tid at four and a half months of therapy and then stopped after six months of total therapy. The patient felt well at the six month follow-up.
# [3] = system: varicella-zoster virus (VZV); assay: case report Example 9, chronic recurrent varicella-zoster virus infection (shingles); type: in vivo, human; conditions: 200 mg bid
# Protocol: A person developed recurrent shingles after multiple episodes of sinus infections and sinus surgeries. They also had chronic indigestion and nausea. Fatigue became so severe that they were bedridden for several years.
# Coxsackievirus B4 antibody was 1:320. […] The patient was started on oxymatrine 200 mg bid.
# coxsackievirus B = conditions: in vitro; mechanism not defined; cited from earlier work
# hepatitis B virus = conditions: cited from earlier work
# hepatitis B = conditions: oral, after one year of treatment; comparable to interferon-α injection; cited from earlier work
# [4] = compared to placebo-treated animals
structure (smiles),measurement,setting,value
O=C1CCC[C@@H]2[C@H]3CCC[N+]4([O-])CCC[C@@H](CN12)[C@@H]34 (some centres unmarked) [oxymatrine],"Th1 cytokines gene expression (interleukin-2, interleukin-12, interleukin-15)",cytokine gene expression,significant increase
same,regulatory Th2 cytokine gene expression (interleukin-10),cytokine gene expression,significant decrease
same,clinical outcome,"[1]; 300 mg bid for three months, three months after finishing the medication, previously on total disability",went back to full-time work
same,fevers,"[1]; at the end of three months of therapy, for several days, with marked decrease in diffuse myalgia",104-105 °F
same,laboratory studies including CBC and complete chemistry panel,"[1]; during therapy, calcium resolved after stopping hydrochlorothiazide",normal except mildly elevated calcium levels
same,relapse after therapy,[1]; in vivo,had not relapsed for at least one year after therapy
same,clinical outcome,"enterovirus; after taking the medication for six weeks, previously bedridden fatigue",returned to full-time work
same,tolerability,enterovirus; in vivo,tolerated well without any adverse reactions
same,laboratory tests,enterovirus; while on therapy,normal
same,elevation of liver enzymes,"[2]; about two months after start, returned to normal within six weeks after tapering to 200 mg bid",3.5 times normal values
same,repeat bronchial washing culture,"[2]; bronchoscopy six months after onset of oxymatrine therapy, with anti-MAC medications",no growth of MAC
same,repeat computed tomography scans of the chest,[2]; in vivo,healing and calcifications of the lesions
same,tolerability,[2]; in vivo,tolerated well
same,night sweats,[2]; within two months,decreased from twice a week to once every two weeks
same,outbreaks of shingles,[3],less often and not as severe
same,clinical outcome,"[3]; three months, previously bedridden",went back to full-time work
same,growth inhibition of coxsackievirus B in cell cultures,coxsackievirus B,growth inhibition
same,level of gamma interferon,hepatitis B virus; [4],increased more than three-fold
same,level of interleukin-2,hepatitis B virus; [4],increased more than three-fold
same,level of interleukin-4,hepatitis B virus; [4],decreased more than three-fold
same,level of interleukin-10,hepatitis B virus; [4],decreased more than three-fold
same,"effect on the hepatitis B viremia, mRNA and protein levels","hepatitis B virus; mouse, in vivo",No effect
same,overall cure rate,hepatitis B,about 40%
